Data: ChEMBL document CHEMBL5096181, “Isoxazole derivatives as anticancer agent: A review on synthetic strategies, mechanism of action and SAR studies” (Eur J Med Chem, 2021)
Values after ≈ are worked out from the molar mass of the structure shown.

How the values were obtained:
[1] = biological target: T1, Tyrosine-protein phosphatase non-receptor type 2 (Homo sapiens, UniProt P17706); assay: Inhibition of TCPTP (unknown origin) by SpectraMax 340 microplate reader Analysis
T1 sequence (P17706 whole entry): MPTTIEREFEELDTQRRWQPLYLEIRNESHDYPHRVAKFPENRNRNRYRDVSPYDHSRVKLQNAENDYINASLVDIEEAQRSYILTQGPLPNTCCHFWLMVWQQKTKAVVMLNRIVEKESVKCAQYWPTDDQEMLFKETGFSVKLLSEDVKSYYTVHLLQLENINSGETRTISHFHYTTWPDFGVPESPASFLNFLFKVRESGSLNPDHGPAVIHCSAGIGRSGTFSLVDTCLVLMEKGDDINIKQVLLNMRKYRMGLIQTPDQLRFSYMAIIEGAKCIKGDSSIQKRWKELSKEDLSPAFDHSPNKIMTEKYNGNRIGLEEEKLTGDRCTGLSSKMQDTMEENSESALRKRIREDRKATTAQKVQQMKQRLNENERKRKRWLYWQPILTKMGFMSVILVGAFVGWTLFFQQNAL

[2] = biological target: T2, Tyrosine-protein phosphatase non-receptor type 1 (Homo sapiens, UniProt P18031); assay: Inhibition of PTP1B (unknown origin) by SpectraMax 340 microplate reader Analysis
T2 sequence (P18031 whole entry): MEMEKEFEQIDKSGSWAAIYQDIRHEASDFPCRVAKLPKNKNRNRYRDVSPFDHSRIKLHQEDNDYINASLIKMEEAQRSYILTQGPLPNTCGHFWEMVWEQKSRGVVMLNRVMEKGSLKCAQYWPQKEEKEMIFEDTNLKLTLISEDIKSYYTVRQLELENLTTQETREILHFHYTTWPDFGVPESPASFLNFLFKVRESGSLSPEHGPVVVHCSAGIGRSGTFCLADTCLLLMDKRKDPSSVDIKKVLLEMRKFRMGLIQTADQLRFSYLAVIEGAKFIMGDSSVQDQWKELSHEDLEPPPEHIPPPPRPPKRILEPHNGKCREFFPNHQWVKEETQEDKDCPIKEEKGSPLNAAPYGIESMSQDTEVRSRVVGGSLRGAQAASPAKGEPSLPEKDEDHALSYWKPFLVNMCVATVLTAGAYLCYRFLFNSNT

[3] = tested on: MCF7; assay: Cytotoxicity against human MCF7 cells assessed as cell growth inhibition by MTT assay; format: functional, cell-based
[4] = tested on: LNCaP C4-2B; assay: Antiproliferative activity against human LNCaP C4-2B cells assessed as cell growth inhibition by MTT assay; format: functional, cell-based
[5] = tested on: CWR22R; assay: Antiproliferative activity against human 22Rv1 cells assessed as cell growth inhibition by MTT assay; format: functional, cell-based
[6] = biological target: Tubulin; assay: Inhibition of tubulin polymerization (unknown origin) by spectrophotometer based analysis; format: protein-complex assay, Homo sapiens
[7] = tested on: LNCaP; assay: Antiproliferative activity against human LNCaP cells assessed as cell growth inhibition by MTT assay; format: functional, cell-based
[8] = tested on: PC-3; assay: Antiproliferative activity against human PC-3 cells assessed as cell growth inhibition by MTT assay; format: functional, cell-based
[9] = biological target: T3, Aromatase (Homo sapiens, UniProt P11511); assay: Inhibition of human recombinant aromatase expressed in baculovirus insect cell using 7-methoxy-trifluoromethyl coumarin (MFC) as substrate preincubated for 10 mins followed by substrate addition and measured for 30 mins by fluorescence based assay
T3 sequence (P11511 whole entry): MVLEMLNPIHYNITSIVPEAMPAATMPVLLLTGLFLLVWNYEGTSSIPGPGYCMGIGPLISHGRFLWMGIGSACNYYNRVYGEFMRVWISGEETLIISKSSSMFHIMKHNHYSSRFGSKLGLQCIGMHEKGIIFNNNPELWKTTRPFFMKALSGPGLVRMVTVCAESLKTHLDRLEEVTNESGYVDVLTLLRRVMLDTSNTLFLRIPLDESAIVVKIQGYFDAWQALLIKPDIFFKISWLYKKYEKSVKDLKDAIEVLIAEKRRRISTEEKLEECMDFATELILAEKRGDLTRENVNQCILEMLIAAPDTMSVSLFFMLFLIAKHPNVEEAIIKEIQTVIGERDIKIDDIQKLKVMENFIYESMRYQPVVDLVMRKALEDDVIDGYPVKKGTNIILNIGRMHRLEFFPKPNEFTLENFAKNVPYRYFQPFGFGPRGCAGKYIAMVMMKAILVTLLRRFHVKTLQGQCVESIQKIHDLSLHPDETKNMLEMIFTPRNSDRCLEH

[10] = tested on: DU-145; assay: Cytotoxicity against human DU-145 cells assessed as inhibition of cell growth by MTT assay; format: functional, cell-based
[11] = tested on: Mahlavu; assay: Cytotoxicity against human Mahlavu cells assessed as cell growth inhibition and measured after 72 hrs by SRB assay; format: functional, cell-based
[12] = tested on: MCF7; assay: Cytotoxicity against human MCF7 cells assessed as cell growth inhibition and measured after 72 hrs by SRB assay; format: functional, cell-based; conditions: MCF7, 72 h
[13] = tested on: Huh-7; assay: Cytotoxicity against human Huh-7 cells assessed as cell growth inhibition and measured after 72 hrs by SRB assay; format: functional, cell-based; conditions: Huh-7, 72 h
[14] = tested on: MCF7; assay: Induction of apoptosis in human MCF7 cells assessed as early apoptosis cells at 2.0 uM measured after 24 hrs by annexin-V-FITC and PI staining based flow cytometry analysis (reference value: 0.486%); format: functional
[15] = tested on: MCF7; assay: Anticancer activity against human MCF7 cells assessed as inhibition of cell proliferation measured after 4 hrs by MTT assay; format: functional, cell-based; conditions: MCF7, 4 h
[16] = tested on: MCF7; assay: Induction of apoptosis in human MCF7 cells assessed as late apoptosis cells at 2.0 uM measured after 24 hrs by annexin-V-FITC and PI staining based flow cytometry analysis (reference value: 0.529%); format: functional
[17] = biological target: Tubulin (Sus scrofa, UniProt P02554+P02550); assay: Inhibition of pig brain tubulin polymerization by spectrometric method
[18] = tested on: MCF7R; assay: Cytotoxicity against human MCF7R cells assessed as cell growth inhibition and by MTT assay; format: functional, cell-based
[19] = tested on: MCF7; assay: Antiproliferative activity against human MCF7 cells assessed as inhibition of cell growth measured after 48 hrs by SRB assay; format: functional, cell-based; conditions: MCF7, 48 h

## O=C(O)c1cccc(/C=C/c2ccc(Oc3cnoc3-c3ccc(Cl)c(Cl)c3)cc2)c1
[1]
  IC50: 3.78 µM
[2]
  IC50: 0.91 µM

## COc1cccc(-c2cc(Cn3nc(N)c4c(C(F)(F)F)cc(-c5cccs5)nc43)on2)c1
[3]
  IC50: 19.4 µM

## C[C@H](CCC(=O)O)[C@H]1CC[C@H]2[C@@H]3CC[C@@H]4C[C@H](O)CC[C@]4(C)[C@H]3CC[C@]12C [LITHOCHOLIC ACID]
[1]
  IC50: 6.12 µM
[2]
  IC50: 2.71 µM

## COc1ccc(C2CC(c3c(-c4ccc([N+](=O)[O-])cc4)noc3C)=NN2C(N)=S)cc1 (stereo not drawn)
[3]
  IC50: 4.48 µg/mL

## COc1cc(N(Cc2c(C)noc2C)C(=O)CSc2nc3ccccc3s2)cc(OC)c1OC
[4]
  IC50: 2.04 µM
[5]
  IC50: 2.13 µM
[6]
  IC50: 2.87 µM
[7]
  IC50: 4.31 µM
[8]
  IC50: 2.81 µM

## Cc1onc(-c2ccc([N+](=O)[O-])cc2)c1C1=NN(C(N)=S)C(c2cccs2)C1 (stereo not drawn)
[3]
  IC50: 2.25 µg/mL

## Cc1c(-c2nocc2C(=O)SC#N)c(=O)n(-c2ccccc2)n1C
[9]
  IC50: 0.0023 µM

## COc1ccc(C2CC(c3ccno3)=NN2C(N)=O)cc1OC (stereo not drawn)
[10]
  IC50: 4 µg/mL (≈ 12.6 µM)

## Cc1cc(COc2ccc(-c3cc(N4CCN(Cc5ccc(C(F)(F)F)cc5)CC4)no3)cc2)n(C)n1
[11]
  IC50: 3.7 µM
[12]
  IC50: 1.2 µM
[13]
  IC50: 0.3 µM

## O=S(=O)(Nc1ccc(-c2cnoc2)cc1)c1ccc(Cl)cc1
[12]
  IC50: 5.7 µM

## CCOc1ccc(-c2cnoc2-c2ccc(OC)c3ccccc23)cc1
[14]
  inhibition at 2 µM: 15.3%
[15]
  IC50: 1.23 µM
[16]
  inhibition at 2 µM: 6.44%
[17]
  IC50: 3.4 µM

## Nc1nn(Cc2cc(-c3ccc4ccccc4n3)no2)c2nc(-c3cccs3)cc(C(F)(F)F)c12
[3]
  IC50: 31.6 µM

## CCCOc1ccc(-c2cc(N3CCN(Cc4ccc(C(F)(F)F)cc4)CC3)no2)cc1
[11]
  IC50: 7.7 µM
[12]
  IC50: 4.9 µM
[13]
  IC50: 8.8 µM

## C#Cc1cccc(Nc2ncnc3cc(OCCOC)c(OCCOC)cc23)c1 [ERLOTINIB]
[12]
  IC50: 4.1 µM

## COc1ccc(-c2oncc2-c2ccc(Cl)cc2)c2ccccc12
[15]
  IC50: 5.26 µM

## FC(F)(F)c1ccc(CN2CCN(c3cc(-c4ccc(C(F)(F)F)cc4)on3)CC2)cc1
[11]
  IC50: > 40 µM
[12]
  IC50: 9.5 µM
[13]
  IC50: 19.9 µM

## FC(F)(F)c1ccc(CN2CCN(c3cc(-c4ccc(Cl)cc4)on3)CC2)cc1
[11]
  IC50: 26.8 µM
[12]
  IC50: 14 µM
[13]
  IC50: 9.6 µM

## CC(=O)O[C@@]12CO[C@@H]1C[C@H](O)[C@@]1(C)C(=O)[C@H](O)C3=C(C)[C@@H](OC(=O)[C@H](O)[C@@H](NC(=O)OC(C)(C)C)c4ccccc4)C[C@@](O)([C@@H](OC(=O)c4ccccc4)[C@H]21)C3(C)C [DOCETAXEL ANHYDROUS]
[10]
  IC50: 5 µg/mL (≈ 6.19 µM)

## Cc1noc(C)c1COc1ccc(-c2cc(N3CCN(Cc4ccc(C(F)(F)F)cc4)CC3)no2)cc1
[11]
  IC50: 2.2 µM
[12]
  IC50: 1.6 µM
[13]
  IC50: 1.2 µM

## O=C(O)c1cccc(/C=C/c2ccc(Oc3cnoc3-c3ccccc3Cl)cc2)c1
[1]
  IC50: 36.2 µM
[2]
  IC50: 1.75 µM

## COc1ccc(C2CC(c3ccno3)=NN2C(N)=O)c(F)c1OC (stereo not drawn)
[10]
  IC50: 2 µg/mL (≈ 5.98 µM)

## O=C(O)c1cccc(/C=C/c2ccc(Oc3cnoc3-c3cccc(Cl)c3)cc2)c1
[1]
  IC50: 7.58 µM
[2]
  IC50: 5.37 µM

## Cc1ccc(-c2cc(N3CCN(Cc4ccc(C(F)(F)F)cc4)CC3)no2)cc1
[11]
  IC50: > 40 µM
[12]
  IC50: 9.4 µM
[13]
  IC50: 24 µM

## COc1cc(N(C(=O)CSc2nc3ccccc3s2)c2ccncc2)cc(OC)c1OC
[5]
  IC50: 5.09 µM

## Cc1onc(-c2ccc([N+](=O)[O-])cc2)c1C1=NN(C(N)=S)C(c2ccc(Cl)cc2)C1 (stereo not drawn)
[3]
  IC50: 5.42 µg/mL

## Oc1ccc(-c2cc(N3CCN(Cc4ccc(C(F)(F)F)cc4)CC3)no2)cc1
[11]
  IC50: 7.5 µM
[12]
  IC50: 8.3 µM
[13]
  IC50: 3.8 µM

## COc1ccc(/C=C/c2cc(/C=C/c3ccc(O)c(OC)c3)no2)cc1O
[18]
  IC50: 12 µM
[3]
  IC50: 13.1 µM

## CS(=O)(=O)c1ccc(-c2cc(N3CCN(Cc4ccc(C(F)(F)F)cc4)CC3)no2)cc1
[11]
  IC50: 26 µM
[12]
  IC50: 2.9 µM
[13]
  IC50: 4.2 µM

## O=S(=O)(Nc1ccc(-c2cn[nH]c2)cc1)c1ccc(Cl)cc1
[12]
  IC50: 50 µM

## O=c1[nH]cc(F)c(=O)[nH]1 [FLUOROURACIL]
[5]
  IC50: 18.3 µM
[9]
  IC50: 0.63 µM
[3]
  IC50: 1.7 µM

## FC(F)(F)c1ccc(CN2CCN(c3cc(-c4ccccc4)on3)CC2)cc1
[11]
  IC50: 14.1 µM
[12]
  IC50: 19.1 µM
[13]
  IC50: 17.1 µM

## COc1ccc(-c2cnoc2-c2ccc(OC)c3ccccc23)cc1
[15]
  IC50: 2.03 µM

## O=C(O)c1cccc(/C=C/c2ccc(Oc3cnoc3-c3cccc([N+](=O)[O-])c3)cc2)c1
[1]
  IC50: 13.2 µM
[2]
  IC50: 2.05 µM

## COc1ccc(-c2oncc2-c2ccccc2Cl)c2ccccc12
[15]
  IC50: 10 µM

## CC(=O)O[C@H]1C(=O)[C@@]2(C)[C@H]([C@H](OC(=O)c3ccccc3)[C@]3(O)C[C@H](OC(=O)[C@H](O)[C@@H](NC(=O)c4ccccc4)c4ccccc4)C(C)=C1C3(C)C)[C@]1(OC(C)=O)CO[C@@H]1C[C@@H]2O [PACLITAXEL]
[3]
  IC50: 0.015 µg/mL

## COc1ccc(-c2cc(-c3c[nH]c4ccccc34)on2)cc1
[19]
  IC50: 2.55 µM

## Nc1nn(Cc2cc(-c3cccc(C(F)(F)F)c3)no2)c2nc(-c3cccs3)cc(C(F)(F)F)c12
[3]
  IC50: 13.4 µM

## Fc1ccc(-c2cc(N3CCN(Cc4ccc(C(F)(F)F)cc4)CC3)no2)cc1
[11]
  IC50: 6.2 µM
[12]
  IC50: 11.9 µM
[13]
  IC50: 5.3 µM
